Structures can show the parent of a compound that is named as a salt. Where two headings read alike, the source gives them in different places.
Test system: A2780 cells
Assay: Test for induction of differentiation in A2780 cells (ALP activity, ALPmin)
Assay type: cell-based, human
Protocol: Increase of alkaline phosphatase (ALP) activity is known as an indicator for differentiation of human colon cancer cells. […] Thus, differentiation inducing action was evaluated using ALP activity as an indicator.
To each well of a 96-well plate was placed 0.1 mL of A2780 cells (15,000 cells/well) and the next day was added 0.1 mL of a sequential dilute of test solution with the medium. […] The reaction was quenched with 0.05 mL/well of 3N sodium hydroxide aq. For each well, an absorbance at 405 nm was measured to determine the minimum concentration of the drug inducing increase of ALP activity (ALPmin).

[1] = Homo sapiens, 72 h, A2780 cells, 3 days incubation, minimum concentration of the drug inducing increase of ALP activity
[2] = A2780 cells, 3 days incubation, minimum concentration of the drug inducing increase of ALP activity

Q: With `Nc1ccc(F)cc1NC(=O)c1ccc(CNC(=O)OCc2cccnc2)cc1` [Example 70, N-(2-amino-5-fluorophenyl)-4-[N-(pyridin-3-yl)methoxycarbonylaminomethyl]benzamide] as the compound, how does the minimal effective concentration [1] read?
A: The minimal effective concentration was 0.1 µM.

Q: `O=C(NCc1ccc(C(=O)Nc2ccccc2O)cc1)NCc1cccnc1` [Example 95, N-(2-hydroxyphenyl)-4-[N′-(pyridin-3-yl)methylureidomethyl]benzamide] was tested. Which minimal effective concentration [2] did it give?
A: The minimal effective concentration was 3 µM.

Q: Which minimal effective concentration [1] does the source give for `Nc1ccccc1NC(=O)c1ccc(-n2cc(COc3ccccn3)oc2=O)cc1` [Example 143, N-(2-aminophenyl)-4-[5-(pyridin-2-yl)oxymethyl-1,3-oxazolin-2-on-3-yl]benzamide] here?
A: The minimal effective concentration was 3 µM.

Q: How did the minimal effective concentration [2] turn out when `COC(=O)c1ccc(C(=O)NCc2ccc(C(=O)Nc3ccccc3N)cc2)cc1` [Example 11, N-(2-aminophenyl)-4-[N-(4-methoxycarboxybenzoyl)aminomethyl]benzamide] was run?
A: Its minimal effective concentration is 1 µM.

Q: `Nc1ccccc1NC(=O)c1ccc(CN2CCN(Cc3cccnc3)C2=O)cc1` [Example 145, N-(2-aminophenyl)-4-[3-(pyridin-3-yl)methylimidazolin-2-on-1-yl]methylbenzamide] was tested. Which minimal effective concentration [2] did it give?
A: Its minimal effective concentration is 3 µM.

Q: `Nc1ccc(NC(=O)c2ccc(CNC(=O)OCc3cccnc3)cc2)cc1` [Comp. Ex. 2, N-(4-aminophenyl)-4-[N-(pyridin-3-yl)methoxycarbonylaminomethyl]benzamide, reference compound] was tested. Which minimal effective concentration [1] did it give?
A: Its minimal effective concentration is over 100 µM.

Q: `Nc1ccccc1NC(=O)c1ccc(CN(CCCc2cccnc2)C(=O)OCc2cccnc2)cc1` [Example 80, N-(2-aminophenyl)-4-[N-[3-(Pyridin-3-yl)propyl]-N-(pyridin-3-yl)methoxycarbonylaminomethyl]benzamide] was tested. Which minimal effective concentration [1] did it give?
A: Its minimal effective concentration is 0.1 µM.

Q: How did the minimal effective concentration [1] turn out when `Nc1ccccc1NC(=O)c1ccc(NC(=O)Cc2ccc(Cl)cc2)cc1` [Example 102, N-(2-aminophenyl)-4-[(4-chlorophenylacetyl)amino]benzamide] was run?
A: Its minimal effective concentration is 3 µM.

Q: How did the minimal effective concentration [1] turn out when `O=C(Nc1ccccc1O)c1ccc(CN(Cc2cccnc2)C(=O)OCc2cccnc2)cc1` [Example 81, N-(2-hydroxyphenyl)-4-[N-(pyridin-3-yl)methyl-N-(pyridin-3-yl)methoxycarbonylaminomethyl]benzamide] was run?
A: The minimal effective concentration was 10 µM.

Q: With `O=C(COc1cccnc1)NCc1ccc(C(=O)Nc2ccccc2O)cc1` [Example 41, N-(2-hydroxyphenyl)-4-[N-(pyridin-3-yl)oxyacetylaminomethyl]benzamide] as the compound, how does the minimal effective concentration [1] read?
A: The minimal effective concentration was 0.3 µM.

Q: With `Nc1ccccc1NC(=O)c1ccc(CNC(=O)NCc2cccnc2)cc1` [Example 89, N-(2-aminophenyl)-4-[N′-(pyridin-3-ylmethyl)ureidomethyl]benzamide] as the compound, how does the minimal effective concentration [2] read?
A: The minimal effective concentration was 0.3 µM.

Q: `Nc1ccccc1NC(=O)c1ccc(CNC(=O)CNc2cccnc2)cc1` [Example 35, N-(2-aminophenyl)-4-[N-[N-(pyridin-3-yl)aminoacetyl]aminomethyl]benzamide] was tested. Which minimal effective concentration [1] did it give?
A: The minimal effective concentration was 0.3 µM.

Q: For `Nc1cccc(NC(=S)NCc2ccc(C(=O)Nc3ccccc3N)cc2)c1` [Example 92, N-(2-aminophenyl)-4-[N′-(3-aminophenyl)thioureidomethyl]benzamide], which minimal effective concentration [2] is on record?
A: The minimal effective concentration was 3 µM.

Q: How did the minimal effective concentration [1] turn out when `COc1ccc(CC(=O)Nc2ccc(C(=O)Nc3ccccc3N)cc2)cc1` [Example 107, N-(2-aminophenyl)-4-[(4-methoxyphenylacetyl)amino]benzamide] was run?
A: The minimal effective concentration was 1 µM.

Q: For `Nc1ccccc1NC(=O)c1ccc(NC(=O)CCc2cccnc2)cc1Cl` [Example 113, N-(2-aminophenyl)-2-chloro-4-[3-(pyridin-3-yl)propanoylamino]benzamide], which minimal effective concentration [1] is on record?
A: The minimal effective concentration was 0.3 µM.

Q: For `Nc1ccccc1NC(=O)c1cc2cc(NC(=O)CCc3cccnc3)ccc2o1` [Example 128, N-(2-aminophenyl)-5-[3-(pyridin-3-yl)propionamide]benzofuran-2-carboxyamide], which minimal effective concentration [2] is on record?
A: Its minimal effective concentration is 0.1 µM.

Q: With `Nc1ccccc1NC(=O)c1ccc(NC(=O)OCCc2cccnc2)cc1` [Example 86, N-(2-aminophenyl)-4-[N-[2-(pyridin-3-yl)ethoxycarbonyl]amino]benzamide] as the compound, how does the minimal effective concentration [1] read?
A: The minimal effective concentration was 0.3 µM.

Q: With `Nc1ccccc1NC(=O)c1ccc(NC(=O)Cc2ccccn2)cc1` [Example 110, N-(2-aminophenyl)-4-[(pyridin-2-yl)acetylamino]benzamide dihydrochloride] as the compound, how does the minimal effective concentration [1] read?
A: Its minimal effective concentration is 3 µM.

Q: `Cc1ncsc1CCOC(=O)NCc1ccc(C(=O)Nc2ccccc2N)cc1` [Example 64, N-(2-aminophenyl)-4-C[N-[2-(4-methylthiazol-5-yl)ethoxycarbonyl]aminomethyl]benzamide] was tested. Which minimal effective concentration [2] did it give?
A: Its minimal effective concentration is 3 µM.

Q: With `Nc1ccccc1NC(=O)c1ccc(NC(=O)Cc2ccc(C(F)(F)F)cc2)cc1` [Example 109, N-(2-aminophenyl)-4-[(4-trifluoromethylphenylacetyl)amino]benzamide] as the compound, how does the minimal effective concentration [1] read?
A: Its minimal effective concentration is 1 µM.

Q: With `Nc1ccccc1NC(=O)c1ccc(COC(=O)NCCCn2ccnc2)cc1` [Example 99, N-(2-aminophenyl)-4-[3-(imidazol-1-yl)propylaminocarbonyloxymethyl]benzamide] as the compound, how does the minimal effective concentration [1] read?
A: The minimal effective concentration was 3 µM.

Q: How did the minimal effective concentration [1] turn out when `Nc1ccccc1NC(=O)c1ccc(CNC(=O)c2ccc(C(=O)O)cc2)cc1` [Example 10, N-(2-aminophenyl)-4-[N-(4-carboxybenzoyl)aminomethyl]benzamide hydrochloride] was run?
A: The minimal effective concentration was 3 µM.

Q: With `Nc1ccccc1NC(=O)c1ccc(-n2cc(COc3ccccc3)oc2=O)cc1` [Example 136, N-(2-aminophenyl)-4-(5-phenoxymethyl-1,3-oxazolin-2-on-3-yl)benzamide] as the compound, how does the minimal effective concentration [1] read?
A: Its minimal effective concentration is 1 µM.

Q: With `Nc1ccccc1NC(=O)c1ccc(CNC(=O)OC2CN3CCC2CC3)cc1` (stereo not shown) [Example 72, N-(2-aminophenyl)-4-[N-(quinuclidin-3-yl)oxycarbonylaminomethyl]benzamide] as the compound, how does the minimal effective concentration [2] read?
A: The minimal effective concentration was 10 µM.

Q: With `Nc1ccccc1NC(=O)c1ccc(CNC(=O)c2c[nH]cn2)cc1` [Example 27, N-(2-aminophenyl)-4-[N-(imidazol-4-yl)carbonylaminomethyl]benzamide] as the compound, how does the minimal effective concentration [1] read?
A: Its minimal effective concentration is 10 µM.

Q: With `Nc1ccccc1NC(=O)c1ccc(-n2cc(COc3cccnc3)oc2=O)cc1` [Example 139, N-(2-aminophenyl)-4-[5-(pyridin-3-yl)oxymethyl-1,3 oxazolin-2-on-3-yl]benzamide] as the compound, how does the minimal effective concentration [1] read?
A: Its minimal effective concentration is 0.3 µM.

Q: With `Nc1ccccc1NC(=O)c1ccc(CN(Cc2cccnc2)C(=O)OCc2cccnc2)cc1` [Example 79, N-(2-aminophenyl)-4-[N-(pyridin-3-yl)methyl-N-(pyridin-3-yl)methoxycarbonylaminomethyl]benzamide] as the compound, how does the minimal effective concentration [1] read?
A: Its minimal effective concentration is 0.1 µM.

Q: For `Cn1cccc1C(=O)NCc1ccc(C(=O)Nc2ccccc2N)cc1` [Example 24, N-(2-aminophenyl)-4-[N-(N′-methyl-1H-pyrrol-2-yl)carbonylaminomethyl]benzamide], which minimal effective concentration [2] is on record?
A: Its minimal effective concentration is 1 µM.

Q: Which minimal effective concentration [2] does the source give for `Nc1ccccc1NC(=O)c1ccc(CNC(=O)Nc2cccnc2)cc1` [Example 91, N-(2-aminophenyl)-4-[N′-(pyridin-3-yl)ureidomethyl]benzamide] here?
A: The minimal effective concentration was 0.1 µM.

Q: How did the minimal effective concentration [1] turn out when `Nc1ccccc1NC(=O)c1ccc(CNC(=O)OCC2CCOC2)cc1` (stereo not shown) [Example 67, N-(2-aminophenyl)-4-[N-(tetrahydrofuran-3-yl)methoxycarbonylaminomethyl]benzamide] was run?
A: The minimal effective concentration was 3 µM.

Q: `Nc1ccccc1NC(=O)c1ccc(CNC(=S)Nc2cccc([N+](=O)[O-])c2)cc1` [Example 93, N-(2-aminophenyl)-4-[N′-(3-nitrophenyl)thioureidomethyl]benzamide] was tested. Which minimal effective concentration [2] did it give?
A: The minimal effective concentration was 3 µM.

Q: `Cc1ccc(C(=O)NCc2ccc(C(=O)Nc3ccccc3N)cc2)cc1` [Example 4, N-(2-aminophenyl)-4-[N-(4-methylbenzoyl)aminomethyl]benzamide hydrochloride] was tested. Which minimal effective concentration [1] did it give?
A: The minimal effective concentration was 1 µM.

Q: `Nc1ccccc1NC(=O)c1ccc(CN(CCCc2cccnc2)C(=O)COc2cccnc2)cc1` [Example 43, N-(2-aminophenyl)-4-[N-(pyridin-3-yl)oxyacetyl-N-[3-(pyridin-3-yl)propyl]aminomethyl]benzamide] was tested. Which minimal effective concentration [1] did it give?
A: Its minimal effective concentration is 3 µM.

Q: How did the minimal effective concentration turn out when `CN(Cc1ccc(C(=O)Nc2ccccc2N)cc1)C(=O)COc1cccnc1` [Example 44, N-(2-aminophenyl)-4-[N-methyl-N-(pyridin-3-yl)oxyacetyl]aminomethylbenzamide] was run?
A: The minimal effective concentration was 0.01 µM.

Q: `Nc1ccccc1NC(=O)c1ccc(N2CC(COc3ccc([N+](=O)[O-])cc3)OC2=O)cc1` (stereo not shown) [Example 137, N-(2-aminophenyl)-4-[5-(4-nitrophenoxy)methyl-1,3-oxazolin-2-on-3-yl-yl]benzamide] was tested. Which minimal effective concentration [2] did it give?
A: The minimal effective concentration was 1 µM.

Q: Which minimal effective concentration [1] does the source give for `O=C(CCc1cccnc1)NCc1ccc(C(=O)Nc2ccccc2O)cc1` [Example 40, N-(2-hydroxyphenyl)-4-[N-[3-(pyridin-3-yl)propionyl]aminomethyl]benzamide] here?
A: The minimal effective concentration was 10 µM.

Q: With `CC(=O)N(CCc1ccc(C(=O)Nc2ccccc2N)cc1)c1cccnc1` [Example 96, N-(2-aminophenyl)-4-[2-[N-(pyridin-3-yl)-acetylamino]ethyl]benzamide] as the compound, how does the minimal effective concentration [1] read?
A: Its minimal effective concentration is 10 µM.

Q: How did the minimal effective concentration [1] turn out when `Nc1ccccc1NC(=O)c1ccc(NC(=O)Cc2ccccc2[N+](=O)[O-])cc1` [Example 103, N-(2-aminophenyl)-4-[(2-nitrophenylacetyl)amino]benzamide hydrochloride] was run?
A: Its minimal effective concentration is 1 µM.

Q: With `Nc1ccc(F)cc1NC(=O)c1ccc(CNC(=O)NCc2cccnc2)cc1` [Example 94, N-(2-amino-5-fluorophenyl)-4-[N′-(pyridin-3-yl)methylureidomethyl]benzamide] as the compound, how does the minimal effective concentration [2] read?
A: Its minimal effective concentration is 3 µM.

Q: `Nc1ccccc1NC(=O)c1ccc(NC(=O)CCCc2ccccc2)cc1` [Example 101, N-(2-aminophenyl)-4-[(4-phenylbutanoyl)amino]benzamide] was tested. Which minimal effective concentration [1] did it give?
A: Its minimal effective concentration is 3 µM.

Reference: patent US7317028B2, “Cell differentiation inducer” (Schering Aktiengesellschaft, priority 1996, dated 2008)
